Reference: PMC8402032, “Unsymmetric Cisplatin-Based Pt(IV) Conjugates Containing a PARP-1 Inhibitor Pharmacophore Tested on Malignant Pleural Mesothelioma Cell Lines” (Molecules, 2021)

How the values were obtained:
[1] = Lipophilicity by RP-HPLC (log k′); assay type: physicochemical; settings: RP-HPLC C18, 15 mM formic acid/CH3OH 30/70
From the text: Since it has been reported that Pt(IV) complexes enter cells by passive diffusion only, with a few exceptions, the evaluation of lipophilicity is key because it is related to the ability of a molecule to passively cross cellular membranes. RP-HPLC techniques are often used to measure the lipophilicity of a compound, since the retention is due to partitioning between the C18 chains of the stationary phase (representing the cellular membrane) and the aqueous eluent (representing the water inside and outside cells). For this purpose, the retention times (tR) of the complexes were transformed as log k′, where k′ = (tR − t0)/t0) and t0 is the column dead-time (Table 1).
RP-HPLC was used to evaluate the capacity factors of the compounds as reported elsewhere. Briefly, a chromatogram for each Pt complex (0.5 mM) was run on a C18 column Phenosphere-NEXT (5-μm, 250 × 4.6 mm ID) with an eluant composition of 15 mM formic acid/CH3OH 30/70 and a flow rate of 0.5 mL min^−1. The corresponding retention time tR was used to calculate log k′, where k′ = (tR − t0)/t0. The dead time of the column t0 was the tR of KCl, added as unretained internal reference.

[2] = tested on: MSTO-211H (biphasic phenotype) malignant pleural mesothelioma cells; experiment: Cell viability assay (Trypan blue dye exclusion), MSTO-211H; assay type: cell-based, human; settings: 72 h treatment
Experimental: (§1) Complexes 6–9 were tested on a panel of human MPM cell lines together with CDDP and SAA1, added for comparison (Table 1). The half-maximal inhibitory concentration, IC50, was determined on MSTO-211H (biphasic phenotype), REN (epithelioid), BR95 (epithelioid), and MM98 (sarcomatoid) cancer cell lines to identify the most promising Pt(IV) conjugate to be further investigated. To determine the number of viable cells, the use of the dye exclusion assay was preferred to the colorimetric assay because of the heterogeneity in the energy metabolism between the different MPM cell lines. This may justify minor differences with respect to the previously published IC50 for CDDP [40].
(§2) Cells were seeded at a density of 10 × 10^4 cells per well in 6-well plates in RPMI medium supplemented with 10% fetal bovine serum (FBS), 100 μg mL^−1 streptomycin, and 10 μg mL^−1 penicillin and incubated overnight at 37 °C in a humidified environment containing 5% CO2 to allow adherence. Cisplatin was dissolved in 0.9% w/v aqueous NaCl brought to pH = 3 with HCl (final stock concentration 1 mM). The Pt(IV) complexes were dissolved in DMSO (final stock concentration 5 mM); the resulting solutions were microfiltered (0.45 μm) and their Pt content was checked by ICP-MS (see Section 3.5.2). These mother solutions were diluted in complete medium to the required concentration range.
(§3) Following 72 h of treatment with the diluent of the compound (Ctrl) or different doses of the Pt compounds, cells were trypsinized and stained with Trypan blue. The number of cells considered viable (unstained cells) was counted in a Bürker haemocytometer within 5 min after staining.

[3] = tested on: BR95 (epithelioid) malignant pleural mesothelioma cells; experiment: Cell viability assay (Trypan blue dye exclusion), BR95; assay type: cell-based, human; settings: 72 h treatment
Experimental: as §1, §2, §3

[4] = tested on: MM98 (sarcomatoid) malignant pleural mesothelioma cells; experiment: Cell viability assay (Trypan blue dye exclusion), MM98; assay type: cell-based, human; settings: 72 h treatment
Experimental: as §1, §2, §3

[5] = Reduction with ascorbic acid followed by RP-HPLC; assay type: physicochemical; settings: ascorbic acid 10 mM, HEPES 50 mM pH 7.4, 37 °C, cosolvent DMF or MeOH, 24 h
Experimental: To verify the activation by reduction mechanism, complexes 6–9 were challenged with the model bioreductant ascorbic acid (AA, 10 mM in water) in HEPES buffer (HEPES = 4-(2-hydroxyethyl)-1-piperazineethanesulfonic acid, 50 mM, pH = 7.4) at 37 °C. The reaction was monitored by following the RP-HPLC peaks over 24 h. The different solubility and retention times required different experimental conditions for the different compounds (cosolvent DMF or MeOH was necessary to maintain the Pt compounds in solution, >5% v/v). For these reasons, complete reduction for 8 and 9 was observed after 8 h, whereas for 6 and 7, the >85% peak area disappeared after 24 h only. […] Complexes 6–9, having very similar coordination skeletons, can be expected to behave in the same way.
The reduction of complexes with ascorbic acid was followed by monitoring of the reduction of the area of their chromatographic peaks via RP-HPLC over 24 h at 37 °C. The Pt compounds were dissolved in methanol or DMF (up to 20 mM) and diluted with different quantities of 50 mM 4-(2-hydroxyethyl)piperazine-1-ethanesulfonic acid (HEPES) buffer (pH = […]) containing 10 mM ascorbic acid. The mixtures were microfiltered to eliminate the precipitated complex. The chromatographic conditions were similar to those for the determination of lipophilicity (see Section 3.4), with different percentages of methanol depending on the complex.

[6] = tested on: PARP-1; experiment: Western blot analysis of PARP-1 expression in MSTO-211H cells; assay type: cell-based, human; settings: 72 h, equitoxic (IC50) concentrations, whole cell lysate
Experimental: It is necessary to verify how much the presence of the bulky Fmoc group might affect the recognition of the PARP catalytic domain. It is important to recall that all PARPis designed as analogues of nicotinamide must contain a primary or secondary amide. Indeed, this is the case of 6 [27]. The effects of compounds 6–9 on the expression of PARP-1 were evaluated by treating MSTO-211H cells for 72 h with equitoxic (at their IC50) concentrations of complexes, followed by Western blot analysis of whole cell lysate. […] First of all, the higher cellular uptake of 6 and 7 increases the intracellular concentration of the Pt metabolite and, in particular, of the ligands, potentially PARPis (synergistic cellular accumulation). […]
For protein analysis, cells were extracted with 1% NP-40 lysis buffer (50 mM Tris-HCl pH 8.5 containing 1% NP-40, 150 mM NaCl, 10 mM EDTA, 10 mM NaF, 10 mM Na4P2O7, and 0.4 mM Na3VO4) with freshly added protease inhibitors (10 μg mL^−1 leupeptin, 4 μg mL^−1 pepstatin, and 0.1 U mL^−1 aprotinin). […] Following SDS-PAGE, proteins were transferred to nitrocellulose, reacted with specific antibodies, and then detected with peroxidase-conjugate secondary antibodies and chemioluminescent ECL reagent. Digital images were taken with the Bio-Rad ChemiDocTM Touch Imaging System and quantified using Bio-Rad Image Lab 5.2.1. […]

**Q.** With `CC(=O)[O][Pt]([NH2])([NH2])([Cl])([Cl])[O]C(=O)CCNC(=O)c1cccc(NC(=O)OCC2c3ccccc3-c3ccccc32)c1` [Compound 6, (OC-6-44)-Acetato[3-(3-(fmoc-amino)-benzamido)-propanoato]-diammine-dichlorido-platinum(IV)] as the compound, how does the “Log k′” value [1] read?
**A.** 4.22

**Q.** And the “ratio IC50 (cisplatin)/IC50 (Pt(IV) complex), MSTO-211H” value [2]?
**A.** 1.6

**Q.** What about the IC50 ([2]; mean ± sd, read-out: IC50 MSTO-211H) of the same compound?
**A.** 690 ± 30 nM

**Q.** And the “ratio IC50 (cisplatin)/IC50 (Pt(IV) complex), BR95” value [3]?
**A.** 2.6

**Q.** What about the IC50 ([3]; mean ± sd) of the same compound?
**A.** 830 ± 40 nM

**Q.** And the “ratio IC50 (cisplatin)/IC50 (Pt(IV) complex), MM98” value [4]?
**A.** 1.8

**Q.** And the IC50 ([4]; mean ± sd)?
**A.** 980 ± 30 nM

**Q.** What about the “peak area disappeared after 24 h” value [5] of the same compound?
**A.** > 85%

**Q.** And the PARP-1 expression [6]?
**A.** lower expression of PARP-1 in the series
